According to article PMC10254233, “Synthesis and In Vitro Biological Evaluation of p-Carborane-Based Di-tert-butylphenol Analogs” (Molecules, 2023):

What was measured:
A549 lung adenocarcinoma [1] = experiment: Cell viability, crystal violet (CV) assay, A549; type: cell-based; conditions: Homo sapiens, 72 h, mean ± SD
Procedure: (§1) Five human cell lines (A375 melanoma, A549 lung adenocarcinoma, HCT116 and HT29 colorectal carcinoma, MDA-MB-231 triple-negative breast adenocarcinoma) were used to study the antitumor effects of the di-tert-butylphenols and their respective carborane analogs. All selected cell lines were derived from inflammation-associated tumors.
(§2) After the incubation period, the supernatant was discarded from the wells, and the cells were washed two times with 200 µL of PBS. Next, MTT solution at a final concentration of 0.5 mg/mL was added and incubated at 37 °C until purple formazan crystals were formed (30 min to one hour). After incubation, the dye was discarded. In order to dissolve the formed formazan crystals DMSO was added, and the absorbance was measured at λmax = 540 nm, with the reference/background wavelength of 670 nm. All results are expressed as a percentage of the control value which was arbitrary set to 100%. After 72 h treatment, cells were washed with 200 µL of PBS and fixed with 4% paraformaldehyde (PFA) for 15 min at room temperature (RT). Next, cells were stained with 1% CV solution. After 20 min, cells were washed in tap water and dried on air. Dye was dissolved in 33% acetic acid and the absorbance was measured at λmax = 540 nm, with the reference/background wavelength of 670 nm. Results were expressed as a percentage of the control value which was arbitrary set to 100%.
(§3) 1. General methods, materials, and procedures
(§4) 1.1.1. Reagents and cells
(§5) Reagents and cells were obtained from following manufacturers: Capricorn Scientific GmbH (Hessen, Germany) – Culture medium RPMI-1640, Dulbecco's Modified Eagle Medium (DMEM), and fetal bovine serum (FBS). Serva (Heidelberg, Germany) – Paraformaldehyde (PFA). Sigma (St. Louis, MO, USA) – Ethylenediaminetetraacetic acid (EDTA), Dimethyl sulfoxide (DMSO), chloroquine, CV, Triton X-100, RNase, PI, PBS, 3-MA, CFSE, and fluorescent mounting medium. AppliChem (MO, USA) –MTT. Thermo Fisher Scientific (Waltham, MA, USA) – DHR. R&D Systems (Minneapolis, MN, USA) – ApoStat. BD (Pharmingen, San Diego, SAD) – Annexin V-FITC (AnnV). Biological Industries (Cromwell, CT, USA) – Penicillin Streptomycin solution. […]
(§6) Afterwards, cells were washed with phosphate-buffered saline (PBS) and stained with AnnV (15 μg/mL) and PI (15 μg/mL). After 15 min incubation at room temperature (RT) protected from light the cells were resuspended in AnnV-binding buffer and analysed using flow cytom-etry. HCT116 cells were incubated with pan-caspase inhibitor Apostat for 30 min at 37 °C to determine whether detected apoptosis was mediated by caspase activation. Afterwards, cells were washed with PBS and analyzed using flow cytometry. […] Afterwards cells were washed with PBS, resuspended and analyzed by flow cytometry (CyFlow® Space Partec using the PartecFloMax® software

A549 lung adenocarcinoma [2] = experiment: Cell viability, MTT assay, A549; type: cell-based, human; conditions: Homo sapiens, A549; 72 h, mean ± SD
Procedure: as §1, §2, §3, §4
(§7) Reagents and cells were obtained from following manufacturers: Capricorn Scientific GmbH (Hessen, Germany) – Culture medium RPMI-1640, Dulbecco's Modified Eagle Medium (DMEM), and fetal bovine serum (FBS). Serva (Heidelberg, Germany) – Paraformaldehyde (PFA). Sigma (St. Louis, MO, USA) – Ethylenediaminetetraacetic acid (EDTA), Dimethyl sulfoxide (DMSO), chloroquine, CV, Triton X-100, RNase, PI, PBS, 3-MA, CFSE, and fluorescent mounting medium. AppliChem (MO, USA) –MTT. Thermo Fisher Scientific (Waltham, MA, USA) – DHR. R&D Systems (Minneapolis, MN, USA) – ApoStat. BD (Pharmingen, San Diego, SAD) – Annexin V-FITC (AnnV). Biological Industries (Cromwell, CT, USA) – Penicillin Streptomycin solution. American Type Culture Collection (ATCC, Manassas, Virginia, USA) – Human lung carcinoma (A549), human breast adenocarcinoma (MDA-MB-231), human colorectal ade-nocarcinoma (HT-29), human colorectal carcinoma (HCT116) and human melanoma (A375).
(§8) Cell lines (A375, HCT116, HT-29 and MDA-MB-231) were cultivated in HEPES-buffered RPMI-1640 medium while A549 cell line was cultivated in Dulbecco's Modified Eagle Medium (DMEM) which were previously supplemented with 10% heat-inactivated FBS, penicillin (100 units/mL), and streptomycin (100 μg/mL). All cells were kept at 37 °C in a humidified atmosphere with 5% CO2. For viability determi-nation cells were seeded at following densities in 96-well plates: 4 x 10^3 cells/well (A375, HT-29 and MDA-MB-231), 5 x 10^3 cells/well (HCT116), and 3 x 10^3 cells/well (A549). […]
(§9) Afterwards, cells were washed with phosphate-buffered saline (PBS) and stained with AnnV (15 μg/mL) and PI (15 μg/mL). After 15 min incubation at room temperature (RT) protected from light the cells were resuspended in AnnV-binding buffer and analysed using flow cytom-etry. HCT116 cells were incubated with pan-caspase inhibitor Apostat for 30 min at 37 °C to determine whether detected apoptosis was mediated by caspase activation. Afterwards, cells were washed with PBS and analyzed using flow cytometry. HCT116 cells were stained with 1 µg/mL of AO solution for 15 min at 37 °C to detect the presence of autophagic cell death. Afterwards cells were washed with PBS, resuspended and analyzed by flow cytometry (CyFlow® Space Partec using the PartecFloMax® software

[3] = test system: MDA-MB-231 triple-negative breast adenocarcinoma; experiment: Cell viability, MTT assay, MDA-MB-231; type: cell-based, human; conditions: Homo sapiens, MDA-MB-231; 72 h, mean ± SD
Procedure: as §1, §2, §3, §4, §7, §8, §9

A375 melanoma [4] = experiment: Cell viability, MTT assay, A375; type: cell-based, human; conditions: Homo sapiens, A-375; 72 h, mean ± SD
Procedure: as §1, §2, §3, §4, §7, §8
(§10) Afterwards, cells were washed with phosphate-buffered saline (PBS) and stained with AnnV (15 μg/mL) and PI (15 μg/mL). […]
(§11) PBS and analyzed using flow cytometry. HCT116 cells were stained with 1 µg/mL of AO solution for 15 min at 37 °C to detect the presence of autophagic cell death. Afterwards cells were washed with PBS, resuspended and analyzed by flow cytometry (CyFlow® Space Partec using the PartecFloMax® software

[5] = test system: HCT116 colorectal carcinoma; experiment: Cell viability, crystal violet (CV) assay, HCT116; type: cell-based; conditions: Homo sapiens, HCT-116; 72 h, mean ± SD
Procedure: as §1, §2, §3, §4, §5, §6

[6] = test system: HT-29 colorectal carcinoma; experiment: Cell viability, crystal violet (CV) assay, HT-29; type: cell-based; conditions: Homo sapiens, 72 h, mean ± SD
Procedure: as §1, §2, §3, §4, §5, §6

human recombinant COX-2 = molecular target: T1, human recombinant COX-2 (Homo sapiens, UniProt P35354); experiment: COX Fluorescent Inhibitor Screening Assay, COX-2; type: biochemical; conditions: in duplicate
T1 construct: purchased Cayman Chemical Company
T1 sequence (P35354 18-604): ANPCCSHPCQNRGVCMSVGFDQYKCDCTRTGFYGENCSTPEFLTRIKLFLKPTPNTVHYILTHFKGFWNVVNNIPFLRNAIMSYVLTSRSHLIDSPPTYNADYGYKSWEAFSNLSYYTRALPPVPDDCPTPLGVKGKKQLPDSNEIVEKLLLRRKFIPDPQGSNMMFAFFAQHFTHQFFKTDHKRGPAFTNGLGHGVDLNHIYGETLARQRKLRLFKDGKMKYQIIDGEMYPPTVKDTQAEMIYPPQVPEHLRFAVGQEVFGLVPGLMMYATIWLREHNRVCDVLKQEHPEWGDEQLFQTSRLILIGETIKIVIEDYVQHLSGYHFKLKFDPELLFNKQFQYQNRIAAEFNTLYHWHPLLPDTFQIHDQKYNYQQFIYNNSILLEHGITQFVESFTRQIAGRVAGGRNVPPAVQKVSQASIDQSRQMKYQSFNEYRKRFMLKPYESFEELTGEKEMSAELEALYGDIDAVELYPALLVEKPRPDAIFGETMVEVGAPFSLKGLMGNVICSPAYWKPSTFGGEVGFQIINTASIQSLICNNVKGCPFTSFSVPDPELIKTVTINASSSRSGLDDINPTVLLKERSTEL
Procedure: (§12) COX inhibition activity against ovine COX-1 and human COX-2 was determined using the fluorescence-based COX assay COX Fluorescent Inhibitor Screening Assay Kit (Cayman Chemical Company, Ann Arbor, MI, USA) according to the manufacturer’s instructions as previously reported by us. All compounds were screened at a concentration of 100 µM in duplicate.

[7] = test system: HCT116 colorectal carcinoma; experiment: Cell viability, MTT assay, HCT116; type: cell-based, human; conditions: Homo sapiens, HCT-116; 72 h, mean ± SD
Procedure: as §1, §2, §3, §4, §7, §8, §10, §11

ovine COX-1 = molecular target: T2, ovine COX-1 (Ovis aries, UniProt P05979); experiment: COX Fluorescent Inhibitor Screening Assay, COX-1; type: biochemical; conditions: in duplicate
T2 construct: purchased Cayman Chemical Company
T2 sequence (P05979 25-600): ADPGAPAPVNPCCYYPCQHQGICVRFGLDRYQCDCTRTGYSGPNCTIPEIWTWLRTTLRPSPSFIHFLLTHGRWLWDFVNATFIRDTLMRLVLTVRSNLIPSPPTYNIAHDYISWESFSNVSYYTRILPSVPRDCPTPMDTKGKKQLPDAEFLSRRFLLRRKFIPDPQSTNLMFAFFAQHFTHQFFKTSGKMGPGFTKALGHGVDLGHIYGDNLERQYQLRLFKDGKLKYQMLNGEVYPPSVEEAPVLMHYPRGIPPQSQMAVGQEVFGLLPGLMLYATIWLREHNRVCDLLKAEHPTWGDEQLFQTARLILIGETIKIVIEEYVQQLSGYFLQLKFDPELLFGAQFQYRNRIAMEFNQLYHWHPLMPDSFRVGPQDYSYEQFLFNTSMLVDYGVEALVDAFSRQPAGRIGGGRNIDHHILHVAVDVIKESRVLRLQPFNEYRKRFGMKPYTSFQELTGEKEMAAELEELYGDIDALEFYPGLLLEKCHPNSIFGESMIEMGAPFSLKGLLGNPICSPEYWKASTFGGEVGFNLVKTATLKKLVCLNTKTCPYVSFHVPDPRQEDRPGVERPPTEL
Procedure: as §12

A375 melanoma [8] = experiment: Cell viability, crystal violet (CV) assay, A375; type: cell-based; conditions: Homo sapiens, A-375; 72 h, mean ± SD
Procedure: as §1, §2, §3, §4, §5, §6

physchem = conditions: pH 7.4
[9] = test system: MDA-MB-231 triple-negative breast adenocarcinoma; experiment: Cell viability, crystal violet (CV) assay, MDA-MB-231; type: cell-based; conditions: Homo sapiens, 72 h, mean ± SD
Procedure: as §1, §2, §3, §4, §5, §6

[10] = test system: HT-29 colorectal carcinoma; experiment: Cell viability, MTT assay, HT-29; type: cell-based, human; conditions: Homo sapiens, HT-29; 72 h, mean ± SD
Procedure: as §1, §2, §3, §4, §7, §8, §9

[11] = served as references for the HPLC method; cited from earlier work

inhibition at 100 µM (human recombinant COX-2) [%] | inhibition at 100 µM (ovine COX-1) [%] | SMILES | IC50 (A549 lung adenocarcinoma [1]) [µM] | IC50 (A549 lung adenocarcinoma [2]) [µM] | IC50 [3] [µM] | IC50 (A375 melanoma [4]) [µM] | IC50 [5] [µM] | IC50 [6] [µM] | IC50 [7] [µM] | IC50 (A375 melanoma [8]) [µM] | chromatographic logD (physchem) | IC50 [9] [µM] | IC50 [10] [µM] | logD7.4 of HPLC references [11]
86 | 38 | CCN1CC/C(=C\c2cc(C(C)(C)C)c(O)c(C(C)(C)C)c2)S1(=O)=O [Compound S-2474, 2,6-Bis(1,1-dimethylethyl)-4-[(E)-(2-ethyl-1,1-dioxido-5-isothiazolidinylidene)methyl]phenol] | 17.9 ± 1.2 | 16.2 ± 1.2 | 34.8 ± 1.7 | 13.2 ± 2.7 | 23.7 ± 1.9 | 23.8 ± 1.7 | 17.5 ± 1 | 19.2 ± 0.7 | 3.75 | 43.5 ± 1.8 | 16.1 ± 1.1 | 
 |  | CC(C)(C)c1cc(C=C2CCOC2=O)cc(C(C)(C)C)c1O [KME-4, 3-([3,5-bis(1,1-dimethylethyl)-4-hydroxyphenyl]methylene)dihydro-2(3H)-furanone] | 36.3 ± 2.8 | 21.9 ± 0.7 | 80.9 ± 7.3 | 13.8 ± 0.6 | 36.2 ± 1.9 | 36.2 ± 1.9 | 18.4 ± 4.6 | 36.4 ± 1.3 | 3.79 | 88.6 ± 2.4 | 18.5 ± 1.5 | 
 |  | CC1=C(C(=O)Nc2ccccc2)S(=O)(=O)CCO1 [Oxycarboxin] |  |  |  |  |  |  |  |  |  |  |  | 1.13
